Source: PubChem BioAssay AID1259407 (Chemical Carcinogenesis Research Information System (CCRIS), 2018)
The source made the active and inactive calls. How the calls were made is not given here.

System: CCRIS mutagenicity, Ames/micronucleus/aberration tests
Assay: CCRIS mutagenicity studies
[1] = Test System: AMES SALMONELLA TYPHIMURIUM, Strain/Indicator: TA98, Metabolic Activation: NONE, Method: PREINCUBATION
[2] = Test System: AMES SALMONELLA TYPHIMURIUM, Strain/Indicator: TA100, Metabolic Activation: NONE, Method: PREINCUBATION

Cc1ccc(C(=O)Cl)cc1 was tested, and the mutagenic call [1] was “inactive; negative”, the mutagenic call (Test System: AMES SALMONELLA TYPHIMURIUM, Strain/Indicator: TA98, Metabolic Activation: RAT LIVER S-9, PCB, Method: PREINCUBATION) was “inactive; negative” and the mutagenic call [2] was “active; positive”. For the same molecule, the mutagenic call (Test System: AMES SALMONELLA TYPHIMURIUM, Strain/Indicator: TA100, Metabolic Activation: RAT LIVER S-9, PCB, Method: PREINCUBATION) was “active; positive”, the mutagenic call (Test System: AMES SALMONELLA TYPHIMURIUM, Strain/Indicator: TA104, Metabolic Activation: NONE, Method: PREINCUBATION) was “active; positive” and the mutagenic call (Test System: AMES SALMONELLA TYPHIMURIUM, Strain/Indicator: TA104, Metabolic Activation: RAT LIVER S-9, PCB, Method: PREINCUBATION) was “active; positive”. The mutagenic call (Test System: E.COLI, Strain/Indicator: WP2 UVRA, Metabolic Activation: NONE, Method: PREINCUBATION) was “active; positive” and the mutagenic call (Test System: E.COLI, Strain/Indicator: WP2 UVRA, Metabolic Activation: RAT LIVER S-9, PCB, Method: PREINCUBATION) was “active; positive”.
For CNC(=O)N(O)C(C)=O, the mutagenic call (Test System: AMES SALMONELLA TYPHIMURIUM, Strain/Indicator: TA98, Metabolic Activation: NONE, Method: STANDARD PLATE) was “active; positive”, the mutagenic call (Test System: AMES SALMONELLA TYPHIMURIUM, Strain/Indicator: TA98, Metabolic Activation: RAT, LIVER, S-9, Method: STANDARD PLATE) was “active; positive” and the mutagenic call (Test System: AMES SALMONELLA TYPHIMURIUM, Strain/Indicator: TA100, Metabolic Activation: NONE, Method: STANDARD PLATE) was “active; positive”.
Oc1cc(Cl)c(Cl)c(Cl)c1 was tested, and the mutagenic call (End Point: IN VITRO CHROMOSOMAL ABERRATIONS, Test System: CHINESE HAMSTER LUNG CELLS (CHL), Metabolic Activation: RAT, LIVER, S-9, KC-400) was “inactive; negative; authors describe results as equivocal”, the mutagenic call (End Point: IN VITRO CHROMOSOMAL ABERRATIONS, Test System: CHINESE HAMSTER OVARY CELLS (CHO), Metabolic Activation: NONE) was “inactive; negative” and the mutagenic call (End Point: IN VITRO CHROMOSOMAL ABERRATIONS, Test System: CHINESE HAMSTER OVARY CELLS (CHO), Metabolic Activation: RAT, LIVER, S-9, AROCLOR 1254) was “inactive; negative”. For the same molecule, the mutagenic call (Test System: AMES SALMONELLA TYPHIMURIUM, Strain/Indicator: TA97, Metabolic Activation: HAMSTER, LIVER, S-9, AROCLOR 1254 (10%), Method: PREINCUBATION) was “inactive; negative”, the mutagenic call (Test System: AMES SALMONELLA TYPHIMURIUM, Strain/Indicator: TA97, Metabolic Activation: HAMSTER, LIVER, S-9, AROCLOR 1254 (30%), Method: PREINCUBATION) was “inactive; negative” and the mutagenic call (Test System: AMES SALMONELLA TYPHIMURIUM, Strain/Indicator: TA97, Metabolic Activation: NONE, Method: PREINCUBATION) was “inactive; negative”. For the same molecule, the mutagenic call (Test System: AMES SALMONELLA TYPHIMURIUM, Strain/Indicator: TA97, Metabolic Activation: RAT, LIVER, S-9, AROCLOR 1254 (10%), Method: PREINCUBATION) was “inactive; negative”, the mutagenic call (Test System: AMES SALMONELLA TYPHIMURIUM, Strain/Indicator: TA97, Metabolic Activation: RAT, LIVER, S-9, AROCLOR 1254 (30%), Method: PREINCUBATION) was “inactive; negative” and the mutagenic call (Test System: AMES SALMONELLA TYPHIMURIUM, Strain/Indicator: TA98, Metabolic Activation: HAMSTER, LIVER, S-9, AROCLOR 1254 (10%), Method: PREINCUBATION) was “inactive; negative”. For the same molecule, the mutagenic call (Test System: AMES SALMONELLA TYPHIMURIUM, Strain/Indicator: TA98, Metabolic Activation: HAMSTER, LIVER, S-9, AROCLOR 1254 (30%), Method: PREINCUBATION) was “inactive; negative”, the mutagenic call [1] was “inactive; negative” and the mutagenic call (Test System: AMES SALMONELLA TYPHIMURIUM, Strain/Indicator: TA98, Metabolic Activation: RAT, LIVER, S-9, AROCLOR 1254 (10%), Method: PREINCUBATION) was “inactive; negative”. For the same molecule, the mutagenic call (Test System: AMES SALMONELLA TYPHIMURIUM, Strain/Indicator: TA98, Metabolic Activation: RAT, LIVER, S-9, AROCLOR 1254 (30%), Method: PREINCUBATION) was “inactive; negative”, the mutagenic call (Test System: AMES SALMONELLA TYPHIMURIUM, Strain/Indicator: TA100, Metabolic Activation: HAMSTER, LIVER, S-9, AROCLOR 1254 (10%), Method: PREINCUBATION) was “inactive; negative” and the mutagenic call (Test System: AMES SALMONELLA TYPHIMURIUM, Strain/Indicator: TA100, Metabolic Activation: HAMSTER, LIVER, S-9, AROCLOR 1254 (30%), Method: PREINCUBATION) was “inactive; negative”. The mutagenic call [2] was “inactive; negative”, the mutagenic call (Test System: AMES SALMONELLA TYPHIMURIUM, Strain/Indicator: TA100, Metabolic Activation: RAT, LIVER, S-9, AROCLOR 1254 (10%), Method: PREINCUBATION) was “inactive; negative” and the mutagenic call (Test System: AMES SALMONELLA TYPHIMURIUM, Strain/Indicator: TA100, Metabolic Activation: RAT, LIVER, S-9, AROCLOR 1254 (30%), Method: PREINCUBATION) was “inactive; negative”. For the same molecule, the mutagenic call (Test System: AMES SALMONELLA TYPHIMURIUM, Strain/Indicator: TA1535, Metabolic Activation: HAMSTER, LIVER, S-9, AROCLOR 1254 (10%), Method: PREINCUBATION) was “inactive; negative”, the mutagenic call (Test System: AMES SALMONELLA TYPHIMURIUM, Strain/Indicator: TA1535, Metabolic Activation: HAMSTER, LIVER, S-9, AROCLOR 1254 (30%), Method: PREINCUBATION) was “inactive; negative” and the mutagenic call (Test System: AMES SALMONELLA TYPHIMURIUM, Strain/Indicator: TA1535, Metabolic Activation: NONE, Method: PREINCUBATION) was “inactive; negative”. The mutagenic call (Test System: AMES SALMONELLA TYPHIMURIUM, Strain/Indicator: TA1535, Metabolic Activation: RAT, LIVER, S-9, AROCLOR 1254 (10%), Method: PREINCUBATION) was “inactive; negative”, the mutagenic call (Test System: AMES SALMONELLA TYPHIMURIUM, Strain/Indicator: TA1535, Metabolic Activation: RAT, LIVER, S-9, AROCLOR 1254 (30%), Method: PREINCUBATION) was “inactive; negative” and the mutagenic call (Test System: AMES SALMONELLA TYPHIMURIUM, Strain/Indicator: TA1537, Metabolic Activation: HAMSTER, LIVER, S-9, AROCLOR 1254 (30%), Method: PREINCUBATION) was “inactive; negative”. For the same molecule, the mutagenic call (Test System: AMES SALMONELLA TYPHIMURIUM, Strain/Indicator: TA1537, Metabolic Activation: NONE, Method: PREINCUBATION) was “inactive; negative” and the mutagenic call (Test System: AMES SALMONELLA TYPHIMURIUM, Strain/Indicator: TA1537, Metabolic Activation: RAT, LIVER, S-9, AROCLOR 1254 (30%), Method: PREINCUBATION) was “inactive; negative”.
